Test system: 4T1 TAMs
Assay: Activity against 4T1 TAMs in-vivo (FACS of harvested tumors)
Set-up: species or system nude rats
Settings: single i.v. dose (Example 1 100 nmol/kg; EC0923 alone 50 μmol/kg), tumors harvested four days later
Description: EXAMPLE 4. Example 1 activity against 4T1 TAMs in-vivo. As a proof-of-concept study, female Foxn1^nu nude rats (Harlan, Inc., Indianapolis, IN) on a folate-deficient diet are subcutaneously implanted with 1×10^6 4T1 tumor cells in the left and right mammary regions (2 tumors per animal). When the tumors reach about 900-1000 mm^3, the animals are intravenously dosed with (i) PBS (n=1), (ii) 100 nmol/kg of the folic acid-releasable linker-drug conjugate, such as Example1 (n=1), (iii) 100 nmol/kg of Example1 plus 50 μmol/kg of EC0923 (n=1), or (iv) 50 μmol/kg of EC0923 (n=1). Four days later, the tumors are harvested, enzymatically digested, and subjected to FACS analysis. The tumor cell suspensions are stained for macrophage markers (CD163 and/or CD11b), cell viability (propidium iodide), and late and early apoptosis (Annexin V).
EXAMPLE 13. Preparation of 4T1 xenograft tumors from nude rats and MDA-MB-231 tumors isolated from nude mice and A549 tumors isolated from nude mice. Each tumor is minced and placed into 20 mL of RPMI1640 (serum free) containing 0.5 mg/mL Collagenase IV, 0.05 mg/mL hyaluronidase, and 0.1 mg/mL DNaseI and placed in a shaker at 200 rpm for 1 hr at 37° C. […]

In the case of Nc1nc2ncc(CNc3ccc(C(=O)N[C@@H](CCC(=O)N[C@H](CC(=O)O)C(=O)N[C@H](CC(=O)O)C(=O)O)C(=O)O)cc3)nc2c(=O)[nH]1 [EC0923, pteroyl-[…]Glu-D-Asp-D-Asp], the “viable CD163(+) CD11b(+) TAM population in 4T1 tumors” value is reported as “does not have any effect”.
